# Target: BRAF^V600E protein (Homo sapiens, UniProt P15056, V600E)
# Experiment: HiBiT cellular BRAF V600E degradation assay
# Type: cell-based
# Conditions: 24 h incubation; for DC50: A375.10 cells (HiBiT tag knocked in at N-terminal of BRAF V600E), concentration at which 50% of total cellular BRAF V600E is degraded; for Emax: A375.10 cells, Emax = amount of residual protein remaining in the cell after compound treatment, read-out: HiBit 24 h Emax
# BRAF^V600E protein, sequence (P15056 whole entry V600E): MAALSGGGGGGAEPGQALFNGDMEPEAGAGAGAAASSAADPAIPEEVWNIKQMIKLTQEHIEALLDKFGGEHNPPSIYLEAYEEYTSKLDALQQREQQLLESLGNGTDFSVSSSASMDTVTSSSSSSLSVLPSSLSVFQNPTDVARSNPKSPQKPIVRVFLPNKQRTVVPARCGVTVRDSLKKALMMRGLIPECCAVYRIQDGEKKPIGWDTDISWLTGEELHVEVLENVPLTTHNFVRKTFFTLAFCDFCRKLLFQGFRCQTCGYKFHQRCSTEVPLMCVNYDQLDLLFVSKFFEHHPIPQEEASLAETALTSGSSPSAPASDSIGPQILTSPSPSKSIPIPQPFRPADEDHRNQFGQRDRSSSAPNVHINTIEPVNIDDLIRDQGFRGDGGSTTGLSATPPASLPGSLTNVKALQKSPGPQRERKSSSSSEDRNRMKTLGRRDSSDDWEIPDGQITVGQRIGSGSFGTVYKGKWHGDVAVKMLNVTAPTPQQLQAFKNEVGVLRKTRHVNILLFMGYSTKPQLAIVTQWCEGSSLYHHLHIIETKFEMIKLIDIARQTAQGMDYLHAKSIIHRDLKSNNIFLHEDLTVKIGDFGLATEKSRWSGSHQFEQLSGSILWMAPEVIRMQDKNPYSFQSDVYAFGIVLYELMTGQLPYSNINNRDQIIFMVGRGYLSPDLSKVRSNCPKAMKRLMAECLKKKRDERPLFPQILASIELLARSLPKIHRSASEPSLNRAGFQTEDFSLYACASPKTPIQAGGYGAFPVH
SMILES,DC50 [nM],Emax [%]
"CCN(C)S(=O)(=O)Nc1ccc(F)c(C(=O)c2c[nH]c3ncc(-c4cnc(N5CC6(CC(C(=O)N7CCC(c8ccc(NC9CCC(=O)NC9=O)cc8)CC7)C6)C5)nc4)cc23)c1F (stereo not drawn) [Example 132, 5-[2-[6-[4-[4-[(2,6-dioxo-3-piperidyl)amino]phenyl]piperidine-1-carbonyl]-2-azaspiro[3.3]heptan-2-yl]pyrimidin-5-yl]-3-[3-[[ethyl(methyl)sulfamoyl]amino]-2,6-difluoro-benzoyl]-1H-pyrrolo[2,3-b]pyridine]",18.2,12
"CCN(C)S(=O)(=O)Nc1ccc(F)c(C(=O)c2c[nH]c3ncc(-c4cnc(N5CC6(CC(CC(=O)N7CCC(c8ccc(NC9CCC(=O)NC9=O)cc8)CC7)C6)C5)nc4)cc23)c1F (stereo not drawn) [Example 133, 5-[2-[6-[2-[4-[4-[(2,6-dioxo-3-piperidyl)amino]phenyl]-1-piperidyl]-2-oxo-ethyl]-2-azaspiro[3.3]heptan-2-yl]pyrimidin-5-yl]-3-[3-[[ethyl(methyl)sulfamoyl]amino]-2,6-difluoro-benzoyl]-1H-pyrrolo[2,3-b]pyridine]",14.7,11.4
"CCN(C)S(=O)(=O)Nc1ccc(F)c(C(=O)c2c[nH]c3ncc(-c4cnc(N5CCC(NC(=O)C6CCN(c7ccc(NC8CCC(=O)NC8=O)cc7F)CC6)CC5)nc4)cc23)c1F (stereo not drawn) [Example 136, 1-[4-[(2,6-dioxo-3-piperidyl)amino]-2-fluoro-phenyl]-N-[1-[5-[3-[3-[[ethyl(methyl)sulfamoyl]amino]-2,6-difluoro-benzoyl]-1H-pyrrolo[2,3-b]pyridin-5-yl]pyrimidin-2-yl]-4-piperidyl]piperidine-4-carboxamide]",3.26,7.37
"CCN(C)S(=O)(=O)Nc1cccc(C(=O)c2c[nH]c3ncc(-c4cnc(N5CCN(C(=O)NC6CCN(c7ccc(NC8CCC(=O)NC8=O)cc7F)CC6)CC5)nc4)cc23)c1F (stereo not drawn) [Example 141, N-[1-[4-[(2,6-dioxo-3-piperidyl)amino]-2-fluoro-phenyl]-4-piperidyl]-4-[5-[3-[3-[[ethyl(methyl)sulfamoyl]amino]-2-fluoro-benzoyl]-1H-pyrrolo[2,3-b]pyridin-5-yl]pyrimidin-2-yl]piperazine-1-carboxamide]",2.84,7.91
"CCN(C)S(=O)(=O)Nc1ccc(F)c(C(=O)c2c[nH]c3ncc(-c4ccc(N5CCN(CCN6CCC(c7ccc(OC8CCC(=O)NC8=O)cc7)CC6)CC5)nc4)cc23)c1F (stereo not drawn) [Example 144, 5-[6-[4-[2-[4-[4-[(2,6-dioxo-3-piperidyl)oxy]phenyl]-1-piperidyl]ethyl]piperazin-1-yl]-3-pyridyl]-3-[3-[[ethyl(methyl)sulfamoyl]amino]-2,6-difluoro-benzoyl]-1H-pyrrolo[2,3-b]pyridine]",16.1,15.6
"CCN(C)S(=O)(=O)Nc1ccc(F)c(C(=O)c2c[nH]c3ncc(-c4ccc(N5CCN(CCN6CCC(c7ccc(OC8CCC(=O)NC8=O)cc7)CC6)C(=O)C5)nc4)cc23)c1F (stereo not drawn) [Example 147, 5-[6-[4-[2-[4-[4-[(2,6-dioxo-3-piperidyl)oxy]phenyl]-1-piperidyl]ethyl]-3-oxo-piperazin-1-yl]-3-pyridyl]-3-[3-[[ethyl(methyl)sulfamoyl]amino]-2,6-difluoro-benzoyl]-1H-pyrrolo[2,3-b]pyridine]",17.2,14.6
"CCN(C)S(=O)(=O)Nc1ccc(F)c(C(=O)c2c[nH]c3ncc(-c4cnc(N5CCc6c(CN7CCC(c8ccc(NC9CCC(=O)NC9=O)cc8)CC7)cccc6C5)nc4)cc23)c1F (stereo not drawn) [Example 150, 5-[[4-[4-[(2,6-dioxo-3-piperidyl)amino]phenyl]-1-piperidyl]methyl]-2-[5-[3-[3-[[ethyl(methyl)sulfamoyl]amino]-2,6-difluoro-benzoyl]-1H-pyrrolo[2,3-b]pyridin-5-yl]pyrimidin-2-yl]-3,4-dihydro-1H-isoquinoline]",32.8,13.3
"CCN(C)S(=O)(=O)Nc1ccc(F)c(C(=O)c2c[nH]c3ncc(-c4cnc(N5CC6(CC(N7CCC(c8ccc(NC9CCC(=O)NC9=O)cc8)CC7)C6)C5)nc4)cc23)c1F (stereo not drawn) [Example 151, 5-[2-[6-[4-[4-[(2,6-dioxo-3-piperidyl)amino]phenyl]-1-piperidyl]-2-azaspiro[3.3]heptan-2-yl]pyrimidin-5-yl]-3-[3-[[ethyl(methyl)sulfamoyl]amino]-2,6-difluoro-benzoyl]-1H-pyrrolo[2,3-b]pyridine]",1.85,6.38
"CCN(C)S(=O)(=O)Nc1ccc(F)c(C(=O)c2c[nH]c3ncc(-c4cnc(N5CCC(n6cc7c(n6)CCN(c6ccc(NC8CCC(=O)NC8=O)cc6)C7)CC5)nc4)cc23)c1F (stereo not drawn) [Example 152, 5-[4-[(2,6-dioxo-3-piperidyl)amino]phenyl]-2-[1-[5-[3-[3-[[ethyl(methyl)sulfamoyl]amino]-2,6-difluoro-benzoyl]-1H-pyrrolo[2,3-b]pyridin-5-yl]pyrimidin-2-yl]-4-piperidyl]-6,7-dihydro-4H-pyrazolo[4,3-c]pyridine]",16.6,11.9
"CCN(C)S(=O)(=O)Nc1cccc(C(=O)c2c[nH]c3ncc(-c4ccc(N5CCN(C(=O)NC6CCN(c7ccc(NC8CCC(=O)NC8=O)cc7F)CC6)CC5)nc4)cc23)c1F (stereo not drawn) [Example 154, N-[1-[4-[(2,6-dioxo-3-piperidyl)amino]-2-fluoro-phenyl]-4-piperidyl]-4-[5-[3-[3-[[ethyl(methyl)sulfamoyl]amino]-2-fluoro-benzoyl]-1H-pyrrolo[2,3-b]pyridin-5-yl]-2-pyridyl]piperazine-1-carboxamide]",2.94,8.25

# Now from value to molecule:
DC50 [nM],Emax [%],SMILES
18.9,11,"CCN(C)S(=O)(=O)Nc1ccc(F)c(C(=O)c2c[nH]c3ncc(-c4cnc(N5CCC(CC(=O)NC6CCN(c7ccc(NC8CCC(=O)NC8=O)cc7F)CC6)CC5)nc4)cc23)c1F (stereo not drawn) [Example 134, N-[1-[4-[(2,6-dioxo-3-piperidyl)amino]-2-fluoro-phenyl]-4-piperidyl]-2-[1-[5-[3-[3-[[ethyl(methyl)sulfamoyl]amino]-2,6-difluoro-benzoyl]-1H-pyrrolo[2,3-b]pyridin-5-yl]pyrimidin-2-yl]-4-piperidyl]acetamide]"
10.5,7.71,"CCN(C)S(=O)(=O)Nc1ccc(F)c(C(=O)c2c[nH]c3ncc(-c4cnc(N5CCN(C(=O)NC6CCN(c7ccc(NC8CCC(=O)NC8=O)cc7F)CC6)CC5)nc4)cc23)c1F (stereo not drawn) [Example 138, N-[1-[4-[(2,6-dioxo-3-piperidyl)amino]-2-fluoro-phenyl]-4-piperidyl]-4-[5-[3-[3-[[ethyl(methyl)sulfamoyl]amino]-2,6-difluoro-benzoyl]-1H-pyrrolo[2,3-b]pyridin-5-yl]pyrimidin-2-yl]piperazine-1-carboxamide]"
15.2,8.77,"CCN(C)S(=O)(=O)Nc1ccc(F)c(C(=O)c2c[nH]c3ncc(-c4ccc(N5CCN(C(=O)NC6CCN(c7ccc(NC8CCC(=O)NC8=O)cc7F)CC6)CC5)nc4)cc23)c1F (stereo not drawn) [Example 140, N-[1-[4-[(2,6-dioxo-3-piperidyl)amino]-2-fluoro-phenyl]-4-piperidyl]-4-[5-[3-[3-[[ethyl(methyl)sulfamoyl]amino]-2,6-difluoro-benzoyl]-1H-pyrrolo[2,3-b]pyridin-5-yl]-2-pyridyl]piperazine-1-carboxamide]"
4.04,11.5,"CCN(C)S(=O)(=O)Nc1ccc(F)c(C(=O)c2c[nH]c3ncc(-c4ccc(N5CCN(CCN6CCC(c7ccc(NC8CCC(=O)NC8=O)cc7)CC6)CC5)nc4)cc23)c1F (stereo not drawn) [Example 143, 5-[6-[4-[2-[4-[4-[(2,6-dioxo-3-piperidyl)amino]phenyl]-1-piperidyl]ethyl]piperazin-1-yl]-3-pyridyl]-3-[3-[[ethyl(methyl)sulfamoyl]amino]-2,6-difluoro-benzoyl]-1H-pyrrolo[2,3-b]pyridine]"
14.4,9.32,"CCN(C)S(=O)(=O)Nc1ccc(F)c(C(=O)c2c[nH]c3ncc(-c4cnc(N5CCN(CCN6CCC(c7ccc(NC8CCC(=O)NC8=O)cc7)CC6=O)CC5)nc4)cc23)c1F (stereo not drawn) [Example 146, 5-[2-[4-[2-[4-[4-[(2,6-dioxo-3-piperidyl)amino]phenyl]-2-oxo-1-piperidyl]ethyl]piperazin-1-yl]pyrimidin-5-yl]-3-[3-[[ethyl(methyl)sulfamoyl]amino]-2,6-difluoro-benzoyl]-1H-pyrrolo[2,3-b]pyridine]"
19.8,13.9,"CCN(C)S(=O)(=O)Nc1ccc(F)c(C(=O)c2c[nH]c3ncc(-c4ccc(N5CCN(CCC6CCN(c7ccc(NC8CCC(=O)NC8=O)cc7)CC6)C(=O)C5)nc4)cc23)c1F (stereo not drawn) [Example 148, 5-[6-[4-[2-[1-[4-[(2,6-dioxo-3-piperidyl)amino]phenyl]-4-piperidyl]ethyl]-3-oxo-piperazin-1-yl]-3-pyridyl]-3-[3-[[ethyl(methyl)sulfamoyl]amino]-2,6-difluoro-benzoyl]-1H-pyrrolo[2,3-b]pyridine]"
9.25,10.6,"CCN(C)S(=O)(=O)Nc1ccc(F)c(C(=O)c2c[nH]c3ncc(-c4cnc(N5CCC(O)(CCN6CCC(c7ccc(NC8CCC(=O)NC8=O)cc7)CC6)CC5)nc4)cc23)c1F (stereo not drawn) [Example 149, 5-[2-[4-[2-[4-[4-[(2,6-dioxo-3-piperidyl)amino]phenyl]-1-piperidyl]ethyl]-4-hydroxy-1-piperidyl]pyrimidin-5-yl]-3-[3-[[ethyl(methyl)sulfamoyl]amino]-2,6-difluoro-benzoyl]-1H-pyrrolo[2,3-b]pyridine]"
6.33,10.9,"CCN(C)S(=O)(=O)Nc1ccc(F)c(C(=O)c2c[nH]c3ncc(-c4ccc(N5CCN(C(=O)CC6(O)CCN(c7ccc(NC8CCC(=O)NC8=O)cc7F)CC6)CC5)cc4)cc23)c1Cl (stereo not drawn) [Example 155, 3-[2-chloro-3-[[ethyl(methyl)sulfamoyl]amino]-6-fluoro-benzoyl]-5-[4-[4-[2-[1-[4-[(2,6-dioxo-3-piperidyl)amino]-2-fluoro-phenyl]-4-hydroxy-4-piperidyl]acetyl]piperazin-1-yl]phenyl]-1H-pyrrolo[2,3-b]pyridine]"
